Type in all cases: cell-based
The target of test [1] is T1, TcPKr-A (Tribolium castaneum, UniProt A0ACM8QKC5).
T1 sequence (A0ACM8QKC5 1-530): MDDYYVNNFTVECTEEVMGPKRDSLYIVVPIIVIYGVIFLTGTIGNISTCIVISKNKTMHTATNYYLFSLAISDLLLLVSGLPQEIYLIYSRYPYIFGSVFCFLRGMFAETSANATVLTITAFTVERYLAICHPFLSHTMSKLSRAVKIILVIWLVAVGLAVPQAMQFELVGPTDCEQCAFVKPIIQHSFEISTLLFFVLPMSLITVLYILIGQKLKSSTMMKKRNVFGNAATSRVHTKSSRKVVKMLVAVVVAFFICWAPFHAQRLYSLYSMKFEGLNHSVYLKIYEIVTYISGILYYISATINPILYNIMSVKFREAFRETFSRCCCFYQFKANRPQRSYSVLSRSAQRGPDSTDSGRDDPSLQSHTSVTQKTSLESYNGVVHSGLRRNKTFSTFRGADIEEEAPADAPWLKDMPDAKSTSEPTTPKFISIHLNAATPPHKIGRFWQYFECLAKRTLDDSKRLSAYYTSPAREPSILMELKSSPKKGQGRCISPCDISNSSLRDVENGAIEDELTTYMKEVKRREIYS
Description: Aequorin luminescence (calcium mobilization) assay, CHO cells transiently expressing TcPKr-A. As to the method:
(§1) We characterized all PRXamide GPCRs through assays of 9 endogenous ligands. Ligand activities were quantified by detection of luminescence responses from CHO cells transiently transfected with GPCR (see Methods and Materials section for details). Dose-response curves were generated by logistic fitting of the log transformed ligand concentrations ranging from 0.01 nM to 10 μM (Fig. 3). All results, shown as averages, were replicated in three independent experiments (see Supplementary Data 1 for details).
(§2) T. castaneum was kept in a 30°C growth chamber under a 16 : 8 (L : D) photoperiod and fed on a diet of wheat flour and Brewer's yeast (10 : 1). Peptides from T. castaneum were synthesized by Genescript (Piscataway, NJ). For culture of Chinese Hamster Ovary cells (CHO), DMEM/F12 medium, fetal bovine serum (FBS), Fungizone and Penicillin/Streptomycin, and coelenterazine for aequorin functional assay were purchased from Gibco cell culture at Life Technologies^TM (Grand Island, NY). TransIT-LT1 Transfection Reagent (Mirus Bio LLC, Madison, WI) was used for transient transfections. […]
(§3) cDNAs for full GPCR ORFs were inserted into the expression vector pcDNA3.1(+) (Invitrogen) or pcDNA5/FRT (Invitrogen). Methods for expression in Chinese Hamster Ovary (CHO) cell supplemented with aequorin and G-α16 and the assays were performed as previously described. Briefly, cells were transfected using the TransIT-LT1 transfection reagent (Mirus Bio LLC). Thirty hours after the transfection, the cells were collected and preincubated with the coelenterazine (Invitrogen) prior to the functional assay. A serial dilution (10 folds) of the 9 endogenous ligands were applied to the cells. The luminescence caused by the intracellular calcium mobilization were measured in continuous 20 seconds in every half-second interval. […] Based on which, a dose response curve was generated for each receptor by logistic fitting in Origin 8.6 (OriginLab).

The target of test [2] is T2, TcPKr-B (Tribolium castaneum, UniProt A0A0A7H8P0).
T2 sequence (A0A0A7H8P0 1-560): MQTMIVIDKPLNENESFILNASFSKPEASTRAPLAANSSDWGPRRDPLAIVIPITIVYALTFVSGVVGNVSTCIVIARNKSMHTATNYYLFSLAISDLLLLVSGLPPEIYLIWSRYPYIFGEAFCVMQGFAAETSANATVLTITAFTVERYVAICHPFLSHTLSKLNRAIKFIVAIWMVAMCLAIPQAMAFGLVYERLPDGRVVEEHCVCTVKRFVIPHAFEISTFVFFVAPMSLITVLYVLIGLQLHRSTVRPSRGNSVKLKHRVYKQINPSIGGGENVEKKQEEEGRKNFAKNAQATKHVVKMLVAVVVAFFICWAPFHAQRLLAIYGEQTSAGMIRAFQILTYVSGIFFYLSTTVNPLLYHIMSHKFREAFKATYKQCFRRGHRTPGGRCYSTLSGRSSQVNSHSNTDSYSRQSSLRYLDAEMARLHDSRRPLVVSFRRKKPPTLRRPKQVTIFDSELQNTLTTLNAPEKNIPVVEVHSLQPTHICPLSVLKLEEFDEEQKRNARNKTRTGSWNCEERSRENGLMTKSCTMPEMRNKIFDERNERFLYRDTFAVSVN
In words: Aequorin luminescence (calcium mobilization) assay, CHO cells transiently expressing TcPKr-B. The protocol: as §1, §2, §3

In test [3] the target is T3, TcCAPAr (Tribolium castaneum, UniProt A0A0A7H7W3).
T3 sequence (A0A0A7H7W3 1-418): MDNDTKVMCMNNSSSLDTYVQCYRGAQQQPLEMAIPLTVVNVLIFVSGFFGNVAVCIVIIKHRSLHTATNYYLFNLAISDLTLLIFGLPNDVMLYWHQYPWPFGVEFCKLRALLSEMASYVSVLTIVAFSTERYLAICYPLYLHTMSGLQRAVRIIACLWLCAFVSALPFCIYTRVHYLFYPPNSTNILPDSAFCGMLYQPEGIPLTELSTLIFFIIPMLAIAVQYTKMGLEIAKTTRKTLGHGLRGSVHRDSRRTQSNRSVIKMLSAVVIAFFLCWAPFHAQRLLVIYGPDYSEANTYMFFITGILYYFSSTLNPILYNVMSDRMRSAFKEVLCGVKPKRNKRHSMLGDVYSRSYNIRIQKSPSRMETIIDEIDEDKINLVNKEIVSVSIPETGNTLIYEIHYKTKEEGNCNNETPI
In words: Aequorin luminescence (calcium mobilization) assay, CHO cells transiently expressing TcCAPAr. As to the method: as §1, §2, §3
A general note: A change in cytosolic calcium serves as a functional read-out for many receptors and channels.

Test [4] addresses T4, TcPKr-C (Tribolium castaneum, UniProt A0ACM8QKC4).
T4 sequence (A0ACM8QKC4 1-483): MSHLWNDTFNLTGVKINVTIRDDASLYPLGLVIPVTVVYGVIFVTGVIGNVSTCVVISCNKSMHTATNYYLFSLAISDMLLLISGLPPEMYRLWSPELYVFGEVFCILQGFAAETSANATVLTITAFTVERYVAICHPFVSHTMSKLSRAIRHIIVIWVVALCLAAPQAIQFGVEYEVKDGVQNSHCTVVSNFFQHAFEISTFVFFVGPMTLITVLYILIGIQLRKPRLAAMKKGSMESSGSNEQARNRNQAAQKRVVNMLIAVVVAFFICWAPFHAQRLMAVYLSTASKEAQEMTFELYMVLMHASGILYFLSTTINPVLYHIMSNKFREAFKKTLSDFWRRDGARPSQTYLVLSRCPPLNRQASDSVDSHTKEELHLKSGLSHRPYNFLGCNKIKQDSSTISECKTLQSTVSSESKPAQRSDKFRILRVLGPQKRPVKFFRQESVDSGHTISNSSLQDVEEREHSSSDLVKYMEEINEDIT
Description: Aequorin luminescence (calcium mobilization) assay, CHO cells transiently expressing TcPKr-C. Conditions: for Receptor activation, in words: text summary of dose-response data. As to the method:
as §1, §2, §3

Setting [5] is: Supplementary data 1, fitted value incl. extrapolations beyond 10 μM, unit inferred, nM by Fig. 3, read-out: EC50s.
Setting [6] is: EC50 [nM], Fig. 3, CHO cells with aequorin and G-α16, logistic fit, ligand 0.01 nM to 10 μM, average of three independent experiments.
The mark [7] stands for this setting: EC50 (bound given in μM), Fig. 3, above highest tested concentration 10 μM.

Where two headings read alike, the source gives them in different places. Where no end group is shown, it is not given here.

For SPPFAPRL-NH2 [PK2/PBAN-2], the EC50 in test [1] (setting [5]) is 17.5 nM; in test [2] (setting [5]), 3.2 nM; in test [3] (setting [6]), 1070 nM; in test [3] (setting [5]), 6970 nM; in test [4] (setting [5]) it was 13 nM.
HVVNFTPRL-NH2 [PK2/PBAN-1]: the EC50 is 21 nM in test [1] (setting [5]); 11.9 nM in test [2] (setting [5]); above 10000 nM in test [3] (setting [7]); 16100 nM in test [3] (setting [5]); 1.4 nM in test [4] (setting [5]).
As for PGANSGGMWFGPRL-NH2 [PK1/DH-1], the EC50 in test [1] (setting [5]) was 6.2 nM; in test [2] (setting [5]), 161 nM; in test [3] (setting [6]), 6970 nM; in test [3] (setting [5]), 1070 nM; in test [4] (setting [7]), above 10000 nM. The “Receptor activation, in words” value in test [4] is “not”.
For HSSPFSPRL-NH2 [PK2/PBAN-3], the EC50 in test [1] (setting [5]) is 7.7 nM; in test [2] (setting [5]) it was 28.7 nM; in test [3] (setting [7]), above 10000 nM; in test [3] (setting [5]), 36600 nM; in test [4] (setting [5]) it was 1 nM.
In the case of “TPHESSVPNERNDDSKETYFWFGPRL-NH2 [PK1/DH-2]”, the EC50 in test [1] (setting [5]) was 92.6 nM; in test [2] (setting [5]), 65.8 nM; in test [3] (setting [5]), 1070 nM; in test [4] (setting [5]) it was 576 nM. Moreover, the “Receptor activation, in words” value in test [4] is on record as “activated by high concentrations”.
With FFMKASKSVPRI-NH2 [ETH-2], the EC50 in test [1] (setting [5]) is 6300 nM; in test [2] (setting [7]), above 10000 nM; in test [2] (setting [5]) it was 21800 nM; in test [3] (setting [5]) it was 88.8 nM; in test [4] (setting [7]), above 10000 nM; in test [4] (setting [5]), 502000 nM.
Regarding NKLASVYALTPSLRV-NH2 [CAPA-1], the EC50 is above 10000 nM in test [1] (setting [7]); 30700 nM in test [1] (setting [5]); above 10000 nM in test [2] (setting [7]); 338000 nM in test [2] (setting [5]); 3.7 nM in test [3]; above 10000 nM in test [4] (setting [7]).
Regarding RIGKMVSFPRI-NH2 [CAPA-2], the EC50 in test [1] (setting [7]) is above 10000 nM; in test [1] (setting [5]) it was 12800 nM; in test [2] (setting [7]), above 10000 nM; in test [2] (setting [5]) it was 62500 nM; in test [3] (setting [5]) it was 5.8 nM; in test [4] (setting [7]), above 10000 nM.
Consider ENYVLKAAKNVPRI-NH2 [ETH-1], for which the EC50 was 9840 nM in test [1] (setting [5]); above 10000 nM in test [2] (setting [7]); 120000 nM in test [2] (setting [5]); 150 nM in test [3] (setting [5]); above 10000 nM in test [4] (setting [7]).

Values taken from PMC4210869, “Functional Phylogenetics Reveals Contributions of Pleiotropic Peptide Action to Ligand-Receptor Coevolution” (Scientific Reports, 2014).
